Laboratory results published in PubChem BioAssay AID292 (DTP/NCI, 2004).
Values joined by “and” are separate entries in the source; they are usually repeats but may differ in a detail not shown here. Equal values may be shown once. Toxic doses and inconclusive results are not listed. How the source made its calls: active means survival T/C of 150% or more; inactive means T/C below 125% in these data.

System: B6C3F1 mice, ip Sarcoma M5076, median survival T/C
Assay: NCI In Vivo Anticancer Drug Screen. Data for tumor model Sarcoma M5076 (intraperitoneal) in B6C3F1 mice
Conditions: endpoint: median survival time, higher = longer survival
Method: The antitumor activity of compounds was measured in mice bearing transplantable tumors. Survival or tumor size were measured and the results are expressed as the measurement made in the treated group (T) divided by the measurement made in the vehicle treated control group (C). The tumor model used in this assay is Sarcoma M5076 (intraperitoneal) in B6C3F1 mice

[1] = dose: 50.0 mg/kg/injection, schedule: Q04DX004 (ip), vehicle: saline with Tween-80
[2] = dose: 100.0 mg/kg/injection, schedule: Q04DX004 (ip), vehicle: saline with Tween-80
[3] = dose: 200.0 mg/kg/injection, schedule: Q04DX004 (ip), vehicle: saline with Tween-80
[4] = dose: 400.0 mg/kg/injection, schedule: Q04DX004 (ip), vehicle: saline with Tween-80
[5] = dose: 50.0 mg/kg/injection, schedule: Q04DX004 (ip), vehicle: Klucel (hydroxypropylcellulose) (HPC)
[6] = dose: 100.0 mg/kg/injection, schedule: Q04DX004 (ip), vehicle: Klucel (hydroxypropylcellulose) (HPC)
[7] = dose: 200.0 mg/kg/injection, schedule: Q04DX004 (ip), vehicle: Klucel (hydroxypropylcellulose) (HPC)
[8] = dose: 400.0 mg/kg/injection, schedule: Q04DX004 (ip), vehicle: Klucel (hydroxypropylcellulose) (HPC)
[9] = dose: 50.0 mg/kg/injection, schedule: Q04DX004 (ip), vehicle: suspension in saline
[10] = dose: 100.0 mg/kg/injection, schedule: Q04DX004 (ip), vehicle: suspension in saline
[11] = dose: 200.0 mg/kg/injection, schedule: Q04DX004 (ip), vehicle: suspension in saline

Measured: T/C

CC(C)(C)c1ccc(C(=O)N2CCOC23CCCCC3)cc1
inactive: [1] 101 % of control and 103 % of control | [2] 93 % of control and 103 % of control | [3] 97 % of control and 98 % of control | [4] 91 % of control and 100 % of control | dose: 800.0 mg/kg/injection, schedule: Q04DX004 (ip), vehicle: saline with Tween-80 89 % of control and 93 % of control

COc1cc(NCc2ccc3nc(N)nc(N)c3c2C)cc(OC)c1OC (tested in a mixture with another compound)
inactive: dose: 10.0 mg/kg/injection, schedule: Q04DX004 (ip), vehicle: water 108 % of control | dose: 20.0 mg/kg/injection, schedule: Q04DX004 (ip), vehicle: water 112 % of control | dose: 40.0 mg/kg/injection, schedule: Q04DX004 (ip), vehicle: water 117 % of control | dose: 80.0 mg/kg/injection, schedule: Q04DX004 (ip), vehicle: water 115 % of control

N#CC1C(=O)NC(=O)C(C#N)C1c1ccncc1 (configuration not stated)
inactive: [5] 100 % of control | [6] 110 % of control | [7] 91 % of control | [8] 104 % of control | dose: 800.0 mg/kg/injection, schedule: Q04DX004 (ip), vehicle: Klucel (hydroxypropylcellulose) (HPC) 96 % of control

Cc1nc2ccccc2c(N)c1-c1cc(C)c2c(C)nc3ccccc3c2n1
inactive: dose: 6.25 mg/kg/injection, schedule: Q04DX004 (ip), vehicle: Klucel (hydroxypropylcellulose) (HPC) 97 % of control | dose: 12.5 mg/kg/injection, schedule: Q04DX004 (ip), vehicle: Klucel (hydroxypropylcellulose) (HPC) 91 % of control | dose: 25.0 mg/kg/injection, schedule: Q04DX004 (ip), vehicle: Klucel (hydroxypropylcellulose) (HPC) 90 % of control and 94 % of control and 101 % of control | [5] 92 % of control and 98 % of control | [6] 96 % of control and 100 % of control | [7] 99 % of control | [8] 106 % of control

N=C(N)SCc1cccc2c(=O)cc(-c3ccccc3)oc12
inactive: dose: 50.0 mg/kg/injection, schedule: Q04DX004 (ip), vehicle: saline 98 % of control | [9] 114 % of control | dose: 100.0 mg/kg/injection, schedule: Q04DX004 (ip), vehicle: saline 102 % of control | [10] 104 % of control | dose: 144.0 mg/kg/injection, schedule: Q04DX004 (ip), vehicle: suspension in saline 105 % of control and 112 % of control | dose: 200.0 mg/kg/injection, schedule: Q04DX004 (ip), vehicle: saline 106 % of control | [11] 104 % of control | dose: 240.0 mg/kg/injection, schedule: Q04DX004 (ip), vehicle: suspension in saline 101 % of control and 109 % of control | dose: 400.0 mg/kg/injection, schedule: Q04DX004 (ip), vehicle: saline 102 % of control | dose: 666.67 mg/kg/injection, schedule: Q04DX004 (ip), vehicle: suspension in saline 101 % of control | dose: 1111.11 mg/kg/injection, schedule: Q04DX004 (ip), vehicle: suspension in saline 100 % of control

O=C(O)C1CC(O)CN1 (configuration not stated)
inactive: [9] 110 % of control | [10] 103 % of control | [11] 97 % of control | dose: 400.0 mg/kg/injection, schedule: Q04DX004 (ip), vehicle: suspension in saline 102 % of control | dose: 800.0 mg/kg/injection, schedule: Q04DX004 (ip), vehicle: suspension in saline 100 % of control

COc1ccc(CNC(=O)C2C(=O)C(=O)N(Cc3ccc(OC)c(OC)c3)C2=O)cc1OC (configuration not stated)
inactive: dose: 28.13 mg/kg/injection, schedule: Q04DX004 (ip), vehicle: Klucel (hydroxypropylcellulose) (HPC) 95 % of control | dose: 56.25 mg/kg/injection, schedule: Q04DX004 (ip), vehicle: Klucel (hydroxypropylcellulose) (HPC) 100 % of control | dose: 112.5 mg/kg/injection, schedule: Q04DX004 (ip), vehicle: Klucel (hydroxypropylcellulose) (HPC) 97 % of control | dose: 225.0 mg/kg/injection, schedule: Q04DX004 (ip), vehicle: Klucel (hydroxypropylcellulose) (HPC) 94 % of control | dose: 450.0 mg/kg/injection, schedule: Q04DX004 (ip), vehicle: Klucel (hydroxypropylcellulose) (HPC) 92 % of control

O=C(Nc1ccccc1)c1c(O)[nH]c(=O)[nH]c1=O
inactive: dose: 25.0 mg/kg/injection, schedule: Q04DX004 (ip), vehicle: saline with Tween-80 102 % of control and 108 % of control | [1] 98 % of control and 106 % of control and 110 % of control | [2] 96 % of control and 111 % of control and 112 % of control | [3] 109 % of control and 111 % of control and 119 % of control | [4] 114 % of control

[CH3][Sn]([CH3])([Cl])[c]1cc[c]([Sn]([CH3])([CH3])[Cl])cc1
inactive: dose: 0.25 mg/kg/injection, schedule: Q04DX004 (ip), vehicle: saline 108 % of control | dose: 0.5 mg/kg/injection, schedule: Q04DX004 (ip), vehicle: saline 105 % of control | dose: 1.0 mg/kg/injection, schedule: Q04DX004 (ip), vehicle: saline 87 % of control | dose: 2.0 mg/kg/injection, schedule: Q04DX004 (ip), vehicle: saline 91 % of control

NC(=O)C1=CC2C3C=CC2(O)C(=O)OC3O1 (configuration not stated)
inactive: dose: 7.5 mg/kg/injection, schedule: Q04DX004 (ip), vehicle: Klucel (hydroxypropylcellulose) (HPC) 98 % of control | dose: 15.0 mg/kg/injection, schedule: Q04DX004 (ip), vehicle: Klucel (hydroxypropylcellulose) (HPC) 95 % of control | dose: 30.0 mg/kg/injection, schedule: Q04DX004 (ip), vehicle: Klucel (hydroxypropylcellulose) (HPC) 101 % of control | dose: 60.0 mg/kg/injection, schedule: Q04DX004 (ip), vehicle: Klucel (hydroxypropylcellulose) (HPC) 106 % of control

CC1(C)Nc2cc3c(cc2-n2cccc21)oc1ccccc13
inactive: dose: 150.0 mg/kg/injection, schedule: Q04DX004 (ip), vehicle: DMSO 101 % of control | dose: 300.0 mg/kg/injection, schedule: Q04DX004 (ip), vehicle: DMSO 100 % of control | dose: 600.0 mg/kg/injection, schedule: Q04DX004 (ip), vehicle: DMSO 101 % of control | dose: 1200.0 mg/kg/injection, schedule: Q04DX004 (ip), vehicle: DMSO 97 % of control

Cc1c(N)nc([C@H](CC(N)=O)NC[C@H](N)C(N)=O)nc1C(=O)N[C@H](C(=O)N[C@H](C)[C@@H](O)[C@H](C)C(=O)N[C@H](C(=O)NCCc1nc(-c2nc(C(=O)NCCC[S+](C)C)cs2)cs1)[C@@H](C)O)C(OC1OC(CO)C(O)C(O)C1OC1OC(CO)C(O)C(OC(N)=O)C1O)c1cnc[nH]1 (some centres not stated)
inactive: dose: 5.0 mg/kg/injection, schedule: Q04DX004 (ip), vehicle: saline 94 % of control | dose: 10.0 mg/kg/injection, schedule: Q04DX004 (ip), vehicle: saline 94 % of control | dose: 20.0 mg/kg/injection, schedule: Q04DX004 (ip), vehicle: saline 109 % of control | dose: 40.0 mg/kg/injection, schedule: Q04DX004 (ip), vehicle: saline 106 % of control

Nc1nc(N)c2cc(C=O)ccc2n1
inactive: dose: 3.13 mg/kg/injection, schedule: Q04DX004 (ip), vehicle: water 91 % of control and 98 % of control | dose: 6.25 mg/kg/injection, schedule: Q04DX004 (ip), vehicle: water 94 % of control | dose: 12.5 mg/kg/injection, schedule: Q04DX004 (ip), vehicle: water 101 % of control and 103 % of control | dose: 50.0 mg/kg/injection, schedule: Q04DX004 (ip), vehicle: water 88 % of control

O=C(O)c1cccc2c1ccc1ccccc12
inactive: dose: 4.0 mg/kg/injection, schedule: Q04DX004 (ip), vehicle: saline with Tween-80 109 % of control | dose: 8.0 mg/kg/injection, schedule: Q04DX004 (ip), vehicle: saline with Tween-80 102 % of control | dose: 8.0 mg/kg/injection, schedule: Q04DX005 (ip), vehicle: saline 98 % of control | dose: 16.0 mg/kg/injection, schedule: Q04DX004 (ip), vehicle: saline with Tween-80 107 % of control | dose: 16.0 mg/kg/injection, schedule: Q04DX005 (ip), vehicle: saline 93 % of control | dose: 32.0 mg/kg/injection, schedule: Q04DX004 (ip), vehicle: saline with Tween-80 105 % of control | dose: 32.0 mg/kg/injection, schedule: Q04DX005 (ip), vehicle: saline 96 % of control | dose: 64.0 mg/kg/injection, schedule: Q04DX004 (ip), vehicle: saline with Tween-80 103 % of control | dose: 64.0 mg/kg/injection, schedule: Q04DX005 (ip), vehicle: saline 94 % of control | dose: 128.0 mg/kg/injection, schedule: Q04DX005 (ip), vehicle: saline 96 % of control
